Results on 20 compounds are retold here after patent publication US20140303144A1, “COMPOUNDS AND METHODS OF TREATING HYPERTENSION” (Medivation Technologies, Inc., priority 2011, published 2014).

The structures appear in SMILES notation.

Experiment [1] deals with SH-SY5Y cells. Description: Cell viability assay (MTS reduction) against 4-Br-A23187 challenge. The note with it: Homo sapiens, SH-SY5Y, compound 10 nM, 4-Br-A23187 (2 μM) for 24 h, Control = 100, Vehicle = 0, read-out: Relative Cytoprotective capacity. Type of experiment: cell-based. How it is done: SH-SY5Y cells cultured in DMEM/F12 media supplemented with 10% FBS were seeded in 96-well microplates at 150,000 cells/cm^2. After 24 h, cells were depleted from FBS and kept in culture for 24 h before the experiment. A stock solution was prepared by dissolving the calcium ionophore 4-Br-A23187 (Calbiochem Cat. N^o 100107) in DMSO at 25 mM. Cells were then treated with 4-Br-A23187 (2 μM), hydrogen peroxide (300 μM) or the mitochondrial toxin rotenone (25 μM) in the presence of vehicle or Compound of the Invention for 24 h. Cell death was determined by measurements of LDH release according to the Cytotoxicity Detection KitPlus (Roche, Mannheim, Germany). Cell viability was determined by measuring the capacity of cells to metabolize MTS tetrazolium (MTS) according to the Cytotoxicity Detection KitPlus (Roche, Mannheim, Germany) and MTS reduction was assessed by the CellTiter 96® AQueous One Solution Cell Proliferation assay (Promega Corporation, Madison, Wis., USA). Compounds were screened at 10 nM, using DMSO as vehicle. Assay results for the experiments with Br-A23187 were presented as the MTS reduction capacity (cell viability) of untreated cells (control), 4-Br-A23187-treated cells (vehicle), and co-incubation of Br-A23187 with Compounds of the Invention treated cells and using […] (FCCP) at 10 μM for 30 min as a control. This assay assesses the ability of the test compounds to protect against cell death that was mediated by mitochondrial dysfunction. In the assay, the calcium ionophore 4-Br-A23187 was used to challenge the cells, causing calcium levels to rise in mitochondria, which leads to depolarization and cell death. Test compounds were assessed for their ability to prevent cell death in response to challenge with 4-Br-A23187.

For experiment [2], the target named is T1, rat adrenergic α1B receptor obtained from Wistar Rat liver (Rattus norvegicus, UniProt P15823).
T1 construct: rat adrenergic α1B receptor obtained from Wistar Rat liver; from tissue; host or cells: Wistar rat liver
T1 sequence (P15823 1-515): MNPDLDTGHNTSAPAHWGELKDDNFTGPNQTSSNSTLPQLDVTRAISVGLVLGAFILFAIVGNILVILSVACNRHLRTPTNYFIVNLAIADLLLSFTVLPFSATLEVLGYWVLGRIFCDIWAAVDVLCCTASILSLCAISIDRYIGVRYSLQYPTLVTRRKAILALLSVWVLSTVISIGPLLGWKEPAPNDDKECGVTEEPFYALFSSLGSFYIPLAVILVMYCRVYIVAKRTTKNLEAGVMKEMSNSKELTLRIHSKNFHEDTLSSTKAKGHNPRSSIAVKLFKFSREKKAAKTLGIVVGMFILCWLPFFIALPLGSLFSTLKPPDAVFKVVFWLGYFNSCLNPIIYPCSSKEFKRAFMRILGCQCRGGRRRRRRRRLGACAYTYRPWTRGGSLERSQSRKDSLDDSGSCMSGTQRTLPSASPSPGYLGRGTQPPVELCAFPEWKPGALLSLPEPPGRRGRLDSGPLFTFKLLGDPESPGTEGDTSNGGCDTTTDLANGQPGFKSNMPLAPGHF
Description: Adrenergic α1B radioligand binding assay ([3H]Prazosin). The note with it: 0.1 μM compound; read-out: Percentage inhibition of ligand binding, Adrenergic α1B. How it is done: To evaluate in radioligand binding assays the activity of compounds of the invention, rat adrenergic α1B receptor obtained from Wistar Rat liver (Garcia-S'ainz, J. et al, Biochem. Biophys. Res. Commun. 186:760, 1992; Michel, A. et al, Br. J. Pharmacol. 98:883, 1989) in a modified Tris-HCl buffer (50 mM Tris-HCl buffer, pH 7.4, 0.5 mM EDTA) was used. Compounds of the invention were incubated with 0.25 nM [^3H]Prazosin for 60 min at 25° C. Non-specific binding was estimated in the presence of 10 μM phentolamine. Receptor proteins were filtered and washed, the filters were then counted to determine [^3H]Prazosin specifically bound. Compounds were screened at 1 μM or lower, using 1% DMSO as vehicle. Compounds of the invention were tested in this biochemical assay and percent inhibition of specific binding was determined. Biochemical assay results are presented as the percent inhibition of specific binding in Tables B1A-B1D.

One may read the inhibition as the drop in the measured response relative to a control, in per cent.

On to `C/C(=C\c1cc(C)cc2c3c(n(C)c12)CCN(C)C3)c1ccncc1` [A11], for which, in experiment [1], the viability at 0.01 µM was determined as 37.6%. Besides, in experiment [2], the inhibition at 0.1 µM is -1%. Consider `Cc1cc(CCc2ccc(C)nc2)c2c(c1)c1c(n2C)CCN(C)C1` [A13], for which the viability at 0.01 µM in experiment [1] was found to be 19.7%. For the same compound, the inhibition at 0.1 µM in experiment [2] was -9%.

As for `Cc1cc(/C=C/c2ccc(C)nc2)c2c(c1)c1c(n2C)CCN(C)C1` [A14], in experiment [2], the inhibition at 0.1 µM worked out at 0%.

Regarding `Cc1cc2c3c(c1)c1c(n3CC(C)(c3ccc(C)nc3)OC(C)C2)CCN(C)C1` (stereo not shown) [B160], in experiment [2], the inhibition at 0.1 µM was found to be 2%. Same read-out and setting: the value for `Cc1cc2c3c(c1)c1c(n3CC(C)(c3ccncc3)OC(C)C2)CCN(C)C1` (stereo not shown) [B165] was 0%. Consider `Cc1cc(C#Cc2cccs2)c2[nH]c3c(c2c1)CN(C)CC3` [A8], for which the inhibition at 0.1 µM in experiment [2] was -3%. Same read-out and setting: next, `C/C(=C\c1cc(C)cc2c3c(n(C)c12)CCN(C)C3)c1ccc(C)nc1` [A15]: 0%.

Turning to `Cc1cc(-c2ccncc2)c2c(c1)c1c(n2C)CCN(C)C1` [A9], the viability at 0.01 µM in experiment [1] amounted to 15.8%. In addition, the inhibition at 0.1 µM in experiment [2] was -9%. The matching figures for `Cc1cc(C#Cc2ccc(C)nc2)c2c(c1)c1c(n2C)CCN(C)C1` [A12]: 35.7% and 2%. With `Cc1cc(C#Cc2ccncc2)c2c(c1)c1c(n2C)CCN(C)C1` [A17], the viability at 0.01 µM in experiment [1] turned out to be 10.8%. In addition, the inhibition at 0.1 µM in experiment [2] came to 9%. As to `Cc1cc(C#Cc2nccs2)c2[nH]c3c(c2c1)CN(C)CC3` [A16], the inhibition at 0.1 µM in experiment [2] stood at 1%. Consider `Cc1ccc(C#Cc2cc(Cl)cc3c4c(n(C)c23)CCN(C)C4)cn1` [A18], for which the viability at 0.01 µM in experiment [1] came to 26%. The inhibition at 0.1 µM in experiment [2] stood at 30%. On to `Cc1cc2c3c(c1)c1c(n3C[C@@](C)(c3ccncc3)O[C@H]2C)CCN(C)C1` [B162], for which, in experiment [2], the inhibition at 0.1 µM was -6%. On to `Cc1ccc2c(c1)c1c3n2CC(c2ccncc2)=CCC3(C)CN(C)C1` (stereo not shown) [D11], for which the viability at 0.01 µM in experiment [1] was 30.3%. In addition, the inhibition at 0.1 µM in experiment [2] turned out to be 16%.

For the compound `C#Cc1cc(C)cc2c3c(n(C)c12)CCN(C)C3` [A10], in experiment [2], the inhibition at 0.1 µM stood at 11%.

Regarding `Cc1cc(-c2ccc(F)cc2)c2c(c1)c1c(n2C)CCN(C)C1` [A7], in experiment [2], the inhibition at 0.1 µM turned out to be 2%. The same measure, in the same setting: next, `Cc1cc2c3c(c1)c1c(n3C[C@](C)(c3ccncc3)O[C@H]2C)CCN(C)C1` [B163]: 6%; `Cc1cc2c3c(c1)c1c(n3C(c3ccccc3)C2)CCN(C)C1` (stereo not shown) [B12]: 28%. Turning to `Cc1ccc2c(c1)c1c3n2C(c2ccccc2)CCC3(C)CN(C)C1` (stereo not shown) [D12], the viability at 0.01 µM in experiment [1] was determined as 32.5%. Also, in experiment [2], the inhibition at 0.1 µM was 10%. For `Cc1ccc2c(c1)c1c3n2C(c2ccccc2)=CCC3(C)CN(C)C1` (stereo not shown) [D10], the inhibition at 0.1 µM in experiment [2] is -3%.
